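Tested at 5 concentrations; 48 h exposure; 96-well plates; endpoints linearly interpolated, else capped at highest concentration. At the GI50, growth is halved.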 Activity calls are given as the source filed them. No stated cut-off is given here; in the data, active = GI50 up to about 1.1 µM and inactive = higher.

Some test systems named below: A498; A549; DU-145; HCT-116; HCT-15; HT-29; K562; MDA-MB-231; MDA-MB-435; MOLT-4; Malme-3M; OVCAR-3; OVCAR-8; RXF 393; SF-268; SF-539; SK-MEL-2; SK-OV-3; SN12C; SW-620.
Test in all cases: inhibition of tumour cell growth, NCI panel, 48 h

Turning to `CC1=C[C@@H]2Cc3nc4cc(Cl)ccc4c(N)c3[C@H](C1)C2`, the GI50 in the experiment on A498 is 11.2 µM (inactive); with A549 it was 12.6 µM (inactive); in the experiment with DU-145 it was 12.9 µM (inactive); with HCT-116, 2.96 µM (inactive); with HCT-15, 7 µM; with HT-29, 2.68 µM (inactive). Besides, the GI50 in the experiment on K562 was 2.71 µM (inactive); in the experiment with MDA-MB-231 it was 11.6 µM (inactive); in the experiment on MDA-MB-435, 10.9 µM (inactive); in the experiment on MOLT-4, 2.07 µM (inactive); with Malme-3M it was 12 µM (inactive); with OVCAR-3, 10.4 µM (inactive). Moreover, the GI50 was 15.3 µM (inactive) with OVCAR-8; 5.42 µM (inactive) with RXF 393; 12.5 µM (inactive) in the experiment on SF-268; 12.4 µM (inactive) with SF-539; 14.7 µM (inactive) in the experiment on SK-MEL-2; 12 µM (inactive) in the experiment with SK-OV-3. Also, the GI50 is 12.4 µM (inactive) in the experiment with SN12C and 11 µM (inactive) in the experiment with SW-620.
As for `O=C1OC(=O)C2CCCC3CCCC1C32` (stereo not given), the GI50 with A498 was > 100 µM (inactive); in the experiment on A549 it was > 100 µM (inactive); with DU-145 it was > 100 µM (inactive); with HCT-116, > 100 µM (inactive); in the experiment on HCT-15, above 100 µM; in the experiment with HT-29, > 100 µM (inactive). Moreover, the GI50 with K562, in the experiment on MDA-MB-231, in the experiment on MDA-MB-435, in the experiment with MOLT-4, in the experiment with Malme-3M and in the experiment on OVCAR-3 was > 100 µM (inactive) throughout. Further, the GI50 with OVCAR-8, with RXF 393, in the experiment on SF-268, in the experiment on SF-539, in the experiment on SK-MEL-2 and with SK-OV-3 was > 100 µM (inactive) in each case. The GI50 with SN12C and with SW-620 was > 100 µM (inactive) throughout.
Regarding `CC1C(=O)O[B-]2(c3ccccc3)Oc3ccccc3C=[N+]12` (stereo not given), the GI50 in the experiment with A498 is > 100 µM (inactive); in the experiment with A549, > 100 µM (inactive); in the experiment on DU-145, > 100 µM (inactive); with HCT-116 it was > 100 µM (inactive); in the experiment on HCT-15, above 100 µM; with HT-29, > 100 µM (inactive). Also, the GI50 in the experiment with K562, in the experiment on MDA-MB-231, with MDA-MB-435, with MOLT-4, with Malme-3M and in the experiment on OVCAR-3 was > 100 µM (inactive) throughout. Besides, the GI50 in the experiment with OVCAR-8, in the experiment with RXF 393, in the experiment with SF-268, in the experiment on SF-539, in the experiment on SK-MEL-2 and with SK-OV-3 was > 100 µM (inactive) in each case. In addition, the GI50 in the experiment with SN12C and with SW-620 was > 100 µM (inactive) throughout.
With `N=C(N)NS(=O)(=O)c1ccc(NC(=O)c2cccc3c(O)c4ccccc4nc23)cc1`, the GI50 with A498 is > 76.4 µM (inactive); with A549, > 100 µM (inactive); with DU-145, > 100 µM (inactive); in the experiment with HCT-116, > 100 µM (inactive); in the experiment on HCT-15 it was above 100 µM; in the experiment on HT-29 it was > 100 µM (inactive). Further, the GI50 in the experiment on K562 was 44 µM (inactive); in the experiment on MDA-MB-231, > 100 µM (inactive); in the experiment with MDA-MB-435, > 100 µM (inactive); in the experiment on MOLT-4, > 83 µM (inactive); with Malme-3M, > 100 µM (inactive); in the experiment with OVCAR-3, > 100 µM (inactive). Moreover, the GI50 in the experiment on OVCAR-8 was 71.1 µM (inactive); in the experiment on RXF 393, > 41 µM (inactive); in the experiment on SF-268, > 100 µM (inactive); in the experiment on SF-539, > 78.3 µM (inactive); in the experiment with SK-MEL-2 it was > 100 µM (inactive); in the experiment on SK-OV-3, 58.2 µM (inactive). Further, the GI50 in the experiment with SN12C and in the experiment with SW-620 was > 100 µM (inactive) each time.
With `C(#CP(c1ccccc1)c1ccccc1)P(C#CP(c1ccccc1)c1ccccc1)c1ccccc1`, the GI50 in the experiment on A498 is > 100 µM (inactive); in the experiment with A549, > 100 µM (inactive); in the experiment with DU-145 it was > 100 µM (inactive); with HCT-116, > 100 µM (inactive); in the experiment on HCT-15, above 100 µM; with HT-29, > 100 µM (inactive). For the same molecule, the GI50 with K562, with MDA-MB-231, in the experiment on MDA-MB-435, in the experiment on MOLT-4, with Malme-3M and in the experiment on OVCAR-3 was > 100 µM (inactive) in each case. Moreover, the GI50 was > 100 µM (inactive) with OVCAR-8; > 100 µM (inactive) with RXF 393; > 100 µM (inactive) in the experiment on SF-268; > 100 µM (inactive) with SF-539; > 100 µM (inactive) in the experiment on SK-MEL-2; 2.77 µM (inactive) in the experiment on SK-OV-3. Moreover, the GI50 in the experiment on SN12C and in the experiment with SW-620 was > 100 µM (inactive) in each case.
For the molecule `N#Cc1c(O)c(/C=N/c2ccc(Cl)cc2)c(=O)n2c1[nH]c1ccccc12`, the GI50 with A498 was > 100 µM (inactive); with A549, > 100 µM (inactive); in the experiment on DU-145, > 100 µM (inactive); in the experiment with HCT-116, > 100 µM (inactive); in the experiment with HCT-15, 36.5 µM; with HT-29, > 100 µM (inactive). For the same molecule, the GI50 with K562, in the experiment on MDA-MB-231, in the experiment on MDA-MB-435, in the experiment on MOLT-4, in the experiment on Malme-3M and with OVCAR-3 was > 100 µM (inactive) each time. The GI50 in the experiment on OVCAR-8, in the experiment with RXF 393, with SF-268, in the experiment on SF-539, in the experiment on SK-MEL-2 and in the experiment on SK-OV-3 was > 100 µM (inactive) each time. For the same molecule, the GI50 in the experiment with SN12C and with SW-620 was > 100 µM (inactive) in each case.
As for `O=C(O)CC1(C(=O)O)CCCCC1`, the GI50 in the experiment with A498 is > 100 µM (inactive); in the experiment with A549, > 100 µM (inactive); with DU-145, > 100 µM (inactive); in the experiment on HCT-116, > 100 µM (inactive); in the experiment on HCT-15, above 100 µM; in the experiment with HT-29, > 100 µM (inactive). Besides, the GI50 in the experiment on K562, in the experiment with MDA-MB-231, in the experiment with MDA-MB-435, with MOLT-4, with Malme-3M and in the experiment on OVCAR-3 was > 100 µM (inactive) each time. In addition, the GI50 with OVCAR-8, with RXF 393, in the experiment on SF-268, in the experiment with SF-539, with SK-MEL-2 and in the experiment on SK-OV-3 was > 100 µM (inactive) each time. Besides, the GI50 with SN12C and in the experiment with SW-620 was > 100 µM (inactive) in each case.
Take `Nc1ncnc2c1ccn2COC(CO)CO`: the GI50 with A498 was > 100 µM (inactive); in the experiment on A549 it was > 100 µM (inactive); with DU-145, > 100 µM (inactive); in the experiment on HCT-116, > 100 µM (inactive); with HCT-15, above 100 µM; in the experiment with HT-29, > 100 µM (inactive). Moreover, the GI50 was > 100 µM (inactive) in the experiment with K562; > 100 µM (inactive) in the experiment with MDA-MB-231; 62.8 µM (inactive) with MDA-MB-435; 51.9 µM (inactive) with MOLT-4; > 100 µM (inactive) in the experiment with Malme-3M; > 100 µM (inactive) with OVCAR-3. Further, the GI50 was > 100 µM (inactive) with OVCAR-8; 49.4 µM (inactive) with RXF 393; > 100 µM (inactive) with SF-268; > 100 µM (inactive) with SF-539; > 100 µM (inactive) with SK-MEL-2; > 100 µM (inactive) in the experiment on SK-OV-3. Further, the GI50 in the experiment with SN12C and in the experiment with SW-620 was > 100 µM (inactive) throughout.
For the molecule `CN(C)CCCNC(=O)CCNC(=O)c1cc(NC(=O)c2cc(NC(=O)c3cc(NC(=O)c4nccn4C)cn3C)cn2C)cn1C`, the GI50 with A498 is > 100 µM (inactive); in the experiment with A549, > 100 µM (inactive); with DU-145 it was > 100 µM (inactive); in the experiment with HCT-116, > 100 µM (inactive); in the experiment with HCT-15, above 100 µM; in the experiment on HT-29, > 100 µM (inactive). Also, the GI50 in the experiment on K562 was > 100 µM (inactive); in the experiment on MDA-MB-231, > 100 µM (inactive); in the experiment with MDA-MB-435, > 100 µM (inactive); in the experiment on MOLT-4, > 100 µM (inactive); with Malme-3M, > 100 µM (inactive); in the experiment on OVCAR-3 it was > 78.2 µM (inactive). Also, the GI50 with OVCAR-8 was > 100 µM (inactive); with RXF 393, > 100 µM (inactive); with SF-268, 44.8 µM (inactive); with SF-539, 54.6 µM (inactive); in the experiment on SK-MEL-2, > 100 µM (inactive); with SK-OV-3, > 100 µM (inactive). Also, the GI50 in the experiment on SN12C and with SW-620 was > 100 µM (inactive) in each case.
On to `CC(=O)NC1=C(OS(=O)(=O)c2ccc(C)cc2)CN(C)C1=O`, for which the GI50 was 4.25 µM (inactive) in the experiment with A498; 3.5 µM (inactive) in the experiment with A549; 4.2 µM (inactive) with DU-145; 3.15 µM (inactive) in the experiment on HCT-116; 2.96 µM with HCT-15; 4.92 µM (inactive) with HT-29. In addition, the GI50 is 3.61 µM (inactive) in the experiment on K562; 7.82 µM (inactive) in the experiment on MDA-MB-231; 4.26 µM (inactive) with MDA-MB-435; 3.25 µM (inactive) in the experiment on MOLT-4; 2.26 µM (inactive) with Malme-3M; 2.74 µM (inactive) in the experiment on OVCAR-3. Also, the GI50 is 4.22 µM (inactive) with OVCAR-8; 3.3 µM (inactive) in the experiment with RXF 393; 5.04 µM (inactive) with SF-268; 2.06 µM (inactive) with SF-539; 2.55 µM (inactive) in the experiment on SK-MEL-2; 7.57 µM (inactive) in the experiment with SK-OV-3. For the same molecule, the GI50 with SN12C is 4.37 µM (inactive); with SW-620 it was 4.68 µM (inactive).
